Assay results taken from ChEMBL document CHEMBL5236658, “Trienomycin A-simplified analogs: Synthesis and anti-neuroinflammatory activity” (Bioorg Med Chem Lett, 2023).

How the values were obtained:
[1] = tested on: BV-2; test: Antineuroinflammatory activity in mouse BV-2 cells assessed as inhibition of LPS-induced NO production at 10 uM by Griess assay; type: functional; set-up: scale not given: the % may be the effect or the level left
[2] = Cytotoxicity against mouse BV-2 cells assessed as cell viability at 20 uM; type: toxicity, cell-based; details: read-out: Activity
[3] = Neurotoxicity against rat PC-12 cells at 20 uM incubated for 24 hrs by MTT assay; type: toxicity, cell-based; details: pc-12, 24 h
[4] = tested on: BV-2; test: Antineuroinflammatory activity in mouse BV-2 cells assessed as inhibition of LPS-induced NO production by Griess assay; type: functional, cell-based
[5] = tested on: PC-12; test: Neuroprotective activity against H2O2-induced rat PC-12 cells injury assessed as cell viability at 10 uM preincubated for 4 hrs followed by H2O2 stimulation and measured after 24 hrs by MTT assay (reference value: 56%); type: functional; details: time 28 hrs, read-out: Activity

Structure (SMILES)	Activity [1] [%]	viability at 20 µM [2] [%]	Activity [3]	EC50 [4] [µM]	viability at 10 µM [5] [%]
C[C@@H](NC(=O)C1CCCCC1)C(=O)OC1CC=CC1	17.7	91.5	–	–	–
C[C@@H](NC(=O)C1CCCCC1)C(=O)O	6.72	101	–	–	–
C[C@@H](NC(=O)C1CCCCC1)C(=O)OC1CCCCCC1	18	96.1	–	–	–
C[C@@H](NC(=O)C1CCCCC1)C(=O)OC1C=CCCC1 (some centres undefined)	14.5	85.4	–	–	–
C[C@@H](NC(=O)C1CCCCC1)C(=O)OC1CCC1	8	106	–	–	–
C[C@@H](NC(=O)C1CCCCC1)C(=O)OC1CCCC1	36	86.2	Non-Toxic	–	–
C[C@H](NC(=O)C1CCCCC1)C(=O)OCc1ccccc1	31.8	90	Non-Toxic	23.6	–
C[C@H](NC(=O)C1CCCCC1)C(=O)OCC1CCCCC1	52.9	92.7	Non-Toxic	8.9	76
C[C@@H](NC(=O)C1CCCCC1)C(=O)OC1CCCCCCCCCCCCCC1	12.5	109	–	–	–
C[C@@H](NC(=O)C1CCCCC1)C(=O)OC1CC1	9.7	97.6	–	–	–
C[C@H](NC(=O)C1CCCCC1)C(=O)OC1CCCCC1	41.8	91.5	Non-Toxic	17.3	67
C[C@@H](NC(=O)C1CCCCC1)C(=O)OCc1ccccc1	47.2	93	Non-Toxic	12.4	80
C[C@@H](NC(=O)C1CCCCC1)C(=O)OC1CC/C=C\CCC1 (some centres undefined)	28.4	112	–	–	–
C[C@@H](NC(=O)C1CCCCC1)C(=O)OC1CCCCCCCCCCC1	19	105	–	–	–
CO[C@H]1/C=C/C=C/C=C/C[C@H](O)[C@H](C)[C@@H](O)/C(C)=C\CCc2cc(O)cc(c2)NC(=O)C1	–	–	–	13	–
C[C@@H](NC(=O)C1CCCCC1)C(=O)OC1CCCCCCC1	8.3	84	–	–	–
C[C@@H](NC(=O)C1CCCCC1)C(=O)OCC1CCCCC1	31.1	98.3	Non-Toxic	24.1	–
C[C@@H](NC(=O)C1CCCCC1)C(=O)OC1CCCCC1	34.6	97.5	Non-Toxic	22	–
O=c1c(O)c(-c2ccc(O)c(O)c2)oc2cc(O)cc(O)c12 [QUERCETIN]	63.2	98.7	–	–	–
CO[C@H]1/C=C/C=C/C=C/C[C@H](OC(=O)[C@@H](C)NC(=O)C2CCCCC2)[C@H](C)[C@@H](O)/C(C)=C\CCc2cc(O)cc(c2)NC(=O)C1 [TRIENOMYCIN A]	–	–	–	0.02	–
